One experiment concerns the target NS3 (Hepatitis C virus, UniProt A3EZJ3). The experiment can be described thus: Inhibitory activity against HCV NS3 protease. Further details: species or system Hepacivirus hominis.
A further experiment relates to Hepatitis C virus. Nature of the experiment: Inhibition of HCV replication in a cellular replicon assay. The experiment is classed as functional, organism-based, Hepacivirus hominis. (In general: In antiviral work, replicon cells carry a viral genome segment that copies itself.)
A further experiment deals with T1, Neutrophil elastase (Homo sapiens, UniProt P08246).
T1 sequence (P08246 whole entry): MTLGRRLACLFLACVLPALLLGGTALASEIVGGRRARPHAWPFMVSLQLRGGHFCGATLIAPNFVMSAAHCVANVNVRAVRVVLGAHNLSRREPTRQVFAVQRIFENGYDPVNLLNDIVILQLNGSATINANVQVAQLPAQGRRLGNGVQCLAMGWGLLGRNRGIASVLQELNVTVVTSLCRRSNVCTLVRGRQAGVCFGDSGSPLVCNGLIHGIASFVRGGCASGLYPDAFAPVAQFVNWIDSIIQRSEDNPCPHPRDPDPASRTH
The experiment can be described thus: Inhibitory activity against HNE. The following applies: read-out: Ki app.

Experiment [1] in a line: Selectivity for HNE over HCV NS3 protease.

Broadly, the EC50 is the midpoint of the concentration-response curve.

Chain of NS3 (A3EZJ3 whole entry): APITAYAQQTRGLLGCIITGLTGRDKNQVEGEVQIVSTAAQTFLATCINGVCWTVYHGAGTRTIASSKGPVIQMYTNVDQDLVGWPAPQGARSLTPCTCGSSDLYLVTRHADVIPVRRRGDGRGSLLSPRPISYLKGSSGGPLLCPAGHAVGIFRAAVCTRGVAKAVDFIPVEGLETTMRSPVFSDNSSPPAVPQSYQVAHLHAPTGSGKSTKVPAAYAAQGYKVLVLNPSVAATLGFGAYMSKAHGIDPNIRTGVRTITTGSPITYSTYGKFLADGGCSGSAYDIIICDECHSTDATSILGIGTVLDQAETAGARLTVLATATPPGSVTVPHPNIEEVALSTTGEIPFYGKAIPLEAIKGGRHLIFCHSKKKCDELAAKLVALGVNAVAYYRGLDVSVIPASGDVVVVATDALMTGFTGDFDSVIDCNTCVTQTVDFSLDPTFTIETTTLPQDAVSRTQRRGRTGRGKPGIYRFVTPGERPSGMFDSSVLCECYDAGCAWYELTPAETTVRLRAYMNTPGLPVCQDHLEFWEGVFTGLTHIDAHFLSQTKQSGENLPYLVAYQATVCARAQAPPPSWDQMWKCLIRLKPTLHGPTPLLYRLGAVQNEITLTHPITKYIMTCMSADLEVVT

Take `CCCC(NC(=O)[C@@H]1C2CCC(C2)N1C(=O)[C@@H](NC(=O)OC(C)(C)C)C(C)(C)C)C(=O)C(=O)NCC(=O)N[C@H](C(=O)N(C)C)c1ccccc1` (some centres undefined): at NS3 (read-out: Ki app), the Ki is 0.11 µM.
Turning to `CCCC(NC(=O)[C@@H]1C2CCC(C2)N1C(=O)[C@@H](NC(=O)OC(C)(C)C)C1CCCCC1)C(=O)C(=O)NCC(=O)N[C@H](C(=O)N(C)C)c1ccccc1` (some centres undefined), at NS3 (read-out: Ki app), the Ki was found to be 0.09 µM.
Turning to `CCCCC(NC(=O)[C@@H]1C2CCC(C2)N1C(=O)[C@@H](NC(=O)OC(C)(C)C)C(C)(C)C)C(=O)C(=O)NCC(=O)N[C@H](C(=O)N(C)C)c1ccccc1` (some centres undefined), the Ki at NS3 (read-out: Ki app) came to 0.081 µM.
On to `CN(C)C(=O)[C@@H](NC(=O)CNC(=O)C(=O)C(CC1CC1)NC(=O)[C@@H]1C2CCC(C2)N1C(=O)[C@@H](NC(=O)NC(C)(C)C)C1CCCCC1)c1ccccc1` (some centres undefined), for which, on NS3 (read-out: Ki), the Ki turned out to be 0.019 µM.
On to `CN(C)C(=O)[C@@H](NC(=O)CNC(=O)C(=O)C(CC1CC1)NC(=O)[C@@H]1C2CCC(C2)N1C(=O)[C@@H](NC(=O)OC(C)(C)C)C(C)(C)C)c1ccccc1` (some centres undefined), for which the Ki on NS3 (read-out: Ki app) amounted to 0.019 µM.
Turning to `CC(C)CC(NC(=O)[C@@H]1C2CCC(C2)N1C(=O)[C@@H](NC(=O)OC(C)(C)C)C1CCCCC1)C(=O)C(=O)NCC(=O)N[C@H](C(=O)N(C)C)c1ccccc1` (some centres undefined), on NS3 (read-out: Ki), the Ki was found to be 0.053 µM.
For the compound `CC(C)CC(NC(=O)[C@@H]1C2CCC(C2)N1C(=O)[C@@H](NC(=O)OC(C)(C)C)C(C)(C)C)C(=O)C(=O)NCC(=O)N[C@H](C(=O)N(C)C)c1ccccc1` (some centres undefined), the Ki at NS3 (read-out: Ki app) is 0.04 µM.
Same read-out and setting: to `CN(C)C(=O)[C@@H](NC(=O)CNC(=O)C(=O)C(CC1CCC1)NC(=O)[C@@H]1C2CCC(C2)N1C(=O)[C@@H](NC(=O)OC(C)(C)C)C1CCCCC1)c1ccccc1` (some centres undefined) belongs 0.051 µM; to `CN(C)C(=O)[C@@H](NC(=O)CNC(=O)C(=O)C(CC1CCC1)NC(=O)[C@@H]1C2CCC(C2)N1C(=O)[C@@H](NC(=O)NC(C)(C)C)C1CCCCC1)c1ccccc1` (some centres undefined), 0.021 µM.
Still for that read-out and setting: in the case of `CN(C)C(=O)[C@@H](NC(=O)CNC(=O)C(=O)C(CC1CCC1)NC(=O)[C@@H]1C2CCC(C2)N1C(=O)[C@@H](NC(=O)OC(C)(C)C)C(C)(C)C)c1ccccc1` (some centres undefined) it was 0.027 µM; in that of `CCCC(NC(=O)[C@@H]1C2CCC(C2)N1C(=O)[C@@H](NC(=O)OC(C)(C)C)C(C)(C)C)C(=O)C(=O)NCC(=O)O` (some centres undefined), 3.8 µM; in that of `C=CCNC(=O)C(=O)C(CCC)NC(=O)[C@@H]1C2CCC(C2)N1C(=O)[C@@H](NC(=O)OC(C)(C)C)C(C)(C)C` (some centres undefined), 5.5 µM.
On the same count and under the same terms, in the case of `CN(C)C(=O)[C@@H](NC(=O)CNC(=O)C(=O)C(CC1CC1)NC(=O)[C@@H]1C2CCC(C2)N1C(=O)[C@@H](NC(=O)OC(C)(C)C)C1CCCCC1)c1ccccc1` (some centres undefined) it was 0.02 µM.
For the compound `CCCCC(NC(=O)[C@@H]1C2CCC(C2)N1C(=O)[C@@H](NC(=O)OC(C)(C)C)C1CCCCC1)C(=O)C(=O)NCC(=O)N[C@H](C(=O)N(C)C)c1ccccc1` (some centres undefined), in the experiment on Hepatitis C virus, the EC50 turned out to be 0.6 µM.
As for `CCCC(NC(=O)[C@@H]1C2CCC(C2)N1C(=O)[C@@H](NC(=O)OC(C)(C)C)C(C)(C)C)C(=O)C(=O)NCC(=O)OCc1ccccc1` (some centres undefined), on NS3 (read-out: Ki app), the Ki came out at 1.5 µM.
For the compound `CN(C)C(=O)[C@@H](NC(=O)CNC(=O)C(=O)C(CC1CCC1)NC(=O)[C@@H]1C2CCC(C2)N1C(=O)[C@@H](NC(=O)NC(C)(C)C)C(C)(C)C)c1ccccc1` (some centres undefined), the Ki was determined as 0.013 µM on NS3 (read-out: Ki app) and 5.3 µM on Neutrophil elastase. Also, the EC50 with Hepatitis C virus came to 2 µM.
Consider `CN(C)C(=O)[C@@H](NC(=O)CNC(=O)C(=O)C(CC1CC1)NC(=O)[C@@H]1C2CCC(C2)N1C(=O)[C@@H](NC(=O)NC(C)(C)C)C(C)(C)C)c1ccccc1` (some centres undefined), for which the values for the Ki at NS3 (read-out: Ki app) and on Neutrophil elastase were 0.01 µM and 0.34 µM, respectively. The Ratio Ki(app) in experiment [1] stood at 35.
As for `CCCCC(NC(=O)[C@@H]1C2CC([C@H]3C[C@@H]23)N1C(=O)[C@@H](NC(=O)C(C)(C)C)C1CCCCC1)C(=O)C(=O)NCC(=O)N[C@H](C(=O)N(C)C)c1ccccc1` (some centres undefined), the Ki on NS3 (read-out: Ki app) amounted to 0.027 µM.
Still for that read-out and setting: to `CCCC(NC(=O)[C@@H]1C2CC([C@H]3C[C@@H]23)N1C(=O)[C@@H](NC(=O)C(C)(C)C)C1CCCCC1)C(=O)C(=O)NCC(=O)N[C@H](C(=O)N(C)C)c1ccccc1` (some centres undefined) belongs 0.09 µM; to `CCCC(NC(=O)[C@@H]1C2CCC(C2)N1C(=O)[C@@H](NC(=O)OC(C)(C)C)C(C)(C)C)C(=O)C(N)=O` (some centres undefined), 6.9 µM.

The record behind these values is ChEMBL document CHEMBL1146051, “Novel inhibitors of hepatitis C NS3-NS4A serine protease derived from 2-aza-bicyclo[2.2.1]heptane-3-carboxylic acid” (Bioorg Med Chem Lett, 2006).
